Reference: ChEMBL document CHEMBL4118177, “Valproic acid induces three novel cytotoxic secondary metabolites in Diaporthe sp., an endophytic fungus from Datura inoxia Mill” (Bioorg Med Chem Lett, 2018)
Calls of active or inactive are those of the source. No cut-off for these calls is given here.

Key:
[1] = Antioxidant activity assessed as DPPH free radical scavenging activity at 12.5 uM after 30 mins in dark by spectrophotometric method relative to control; format: functional
[2] = test system: MCF7; assay: Cytotoxicity against human MCF7 cells assessed as reduction in cell viability after 48 hrs by MTT assay; format: functional, cell-based; conditions: MCF7, 48 h
[3] = test system: Pseudomonas aeruginosa; assay: Antibacterial activity against Pseudomonas aeruginosa ATCC 27853 at 62.5 uM after 24 hrs; format: functional, organism-based
[4] = Antioxidant activity assessed as DPPH free radical scavenging activity at 100 uM after 30 mins in dark by spectrophotometric method relative to control; format: functional
[5] = Antioxidant activity assessed as DPPH free radical scavenging activity at 50 uM after 30 mins in dark by spectrophotometric method relative to control; format: functional
[6] = Antioxidant activity assessed as DPPH free radical scavenging activity after 30 mins in dark by spectrophotometric method; format: functional
[7] = Antioxidant activity assessed as DPPH free radical scavenging activity at 6.25 uM after 30 mins in dark by spectrophotometric method relative to control; format: functional
[8] = test system: PC-3; assay: Cytotoxicity against human PC3 cells assessed as reduction in cell viability after 48 hrs by MTT assay; format: functional, cell-based; conditions: PC-3, 48 h
[9] = test system: Escherichia coli; assay: Antibacterial activity against Escherichia coli ATCC 25922 at 62.5 uM after 24 hrs; format: functional, organism-based
[10] = test system: Staphylococcus aureus; assay: Antibacterial activity against Staphylococcus aureus ATCC 25923 at 62.5 uM after 24 hrs; format: functional, organism-based
[11] = Antioxidant activity assessed as DPPH free radical scavenging activity at 25 uM after 30 mins in dark by spectrophotometric method relative to control; format: functional
[12] = test system: MIA PaCa-2; assay: Cytotoxicity against human MIAPaCa2 cells assessed as reduction in cell viability after 48 hrs by MTT assay; format: functional, cell-based; conditions: MIA PaCa-2, 48 h
[13] = test system: T47D; assay: Cytotoxicity against human T47D cells; format: functional, cell-based

EC50 [6] [µM]	Compound	Activity [1] [%]	IC50 [2] [µM]	Activity [3]	Activity [4] [%]	Activity [5] [%]	Activity [7] [%]	IC50 [8] [µM]	Activity [9]	Activity [10]	Activity [11] [%]	IC50 [12] [µM]	IC50 [13] [µM]
> 100	CCC[C@@H]1C[C@H](O)[C@@H](OC)/C=C/C=C\C(=O)O1	4.04	> 50	inactive	10	8.13	2.37	22	inactive	inactive	7.12	34	–
6.2	O=C1O[C@H]([C@@H](O)CO)C(O)=C1O [ASCORBIC ACID]	60.9	–	–	87.8	85.8	52.7	–	–	–	76.5	–	–
> 100	CCC[C@@H]1C[C@H](O)[C@@H](O)/C=C/C=C\C(=O)O1	36.6	29	inactive	39.1	38.5	35	18	inactive	inactive	37.4	32	7

Continued, compound first:

Compound	EC50 [6] [µM]	Activity [1] [%]	IC50 [2] [µM]	Activity [3]	Activity [4] [%]	Activity [5] [%]	Activity [7] [%]	IC50 [8] [µM]	Activity [9]	Activity [10]	Activity [11] [%]	IC50 [12] [µM]	IC50 [13] [µM]
O=C(O)c1cn(C2CC2)c2cc(N3CCNCC3)c(F)cc2c1=O	–	–	–	Active	–	–	–	–	Active	Active	–	–	–
CCC/C=C/[C@@H]1OC(=O)c2cc(O)cc(O)c2[C@@H]1O	10.3	55	> 50	inactive	61	59	34.3	> 50	inactive	inactive	58	> 50	–
CCC[C@H]1OC(=O)/C=C\C=C\[C@H](O)[C@@H](O)[C@@H]1[C@H](C)COC(=O)c1ccc(O)cc1	27.5	26.8	30	inactive	63	59	22.1	14	inactive	inactive	48.3	20	–
CC(=O)O[C@H]1C(=O)[C@@]2(C)[C@H]([C@H](OC(=O)c3ccccc3)[C@]3(O)C[C@H](OC(=O)[C@H](O)[C@@H](NC(=O)c4ccccc4)c4ccccc4)C(C)=C1C3(C)C)[C@]1(OC(C)=O)CO[C@@H]1C[C@@H]2O [PACLITAXEL]	–	–	–	–	–	–	–	0.007	–	–	–	0.006	–
